Non-standard residues stand in square brackets, D forms with d. Residues, ends and D or L forms follow the SMILES beside them.

First the molecules themselves.
B1: target cyclic peptide 5 (peptide)
peptide: cyclo(PESVRKKSI[dP])
SMILES: CC[C@H](C)[C@@H]1NC(=O)[C@H](CO)NC(=O)[C@H](CCCCN)NC(=O)[C@H](CCCCN)NC(=O)[C@H](CCCNC(=N)N)NC(=O)[C@H](C(C)C)NC(=O)[C@H](CO)NC(=O)[C@H](CCC(=O)O)NC(=O)[C@@H]2CCCN2C(=O)[C@H]2CCCN2C1=O
notes: also called compound 5
B2: target cyclic peptide 7 (peptide)
peptide: cyclo(PYIVRKKPY[dP])
SMILES: CC[C@H](C)[C@@H]1NC(=O)[C@H](Cc2ccc(O)cc2)NC(=O)[C@@H]2CCCN2C(=O)[C@H]2CCCN2C(=O)[C@H](Cc2ccc(O)cc2)NC(=O)[C@@H]2CCCN2C(=O)[C@H](CCCCN)NC(=O)[C@H](CCCCN)NC(=O)[C@H](CCCNC(=N)N)NC(=O)[C@H](C(C)C)NC1=O
notes: also called ^LP-Y-I-V-R / ^DP-Y-P-K-K
B3: target cyclic peptide 2 (peptide)
peptide: cyclo(PEYVRKKYI[dP])
SMILES: CC[C@H](C)[C@@H]1NC(=O)[C@H](Cc2ccc(O)cc2)NC(=O)[C@H](CCCCN)NC(=O)[C@H](CCCCN)NC(=O)[C@H](CCCNC(=N)N)NC(=O)[C@H](C(C)C)NC(=O)[C@H](Cc2ccc(O)cc2)NC(=O)[C@H](CCC(=O)O)NC(=O)[C@@H]2CCCN2C(=O)[C@H]2CCCN2C1=O
notes: also called compound 2
B4: target cyclic peptide 3 (peptide)
peptide: cyclo(PEWVRKKWI[dP])
SMILES: CC[C@H](C)[C@@H]1NC(=O)[C@H](Cc2c[nH]c3ccccc23)NC(=O)[C@H](CCCCN)NC(=O)[C@H](CCCCN)NC(=O)[C@H](CCCNC(=N)N)NC(=O)[C@H](C(C)C)NC(=O)[C@H](Cc2c[nH]c3ccccc23)NC(=O)[C@H](CCC(=O)O)NC(=O)[C@@H]2CCCN2C(=O)[C@H]2CCCN2C1=O
notes: also called compound 3
B5: target cyclic peptide 4 (peptide)
peptide: cyclo(PEAVRKKAI[dP])
SMILES: CC[C@H](C)[C@@H]1NC(=O)[C@H](C)NC(=O)[C@H](CCCCN)NC(=O)[C@H](CCCCN)NC(=O)[C@H](CCCNC(=N)N)NC(=O)[C@H](C(C)C)NC(=O)[C@H](C)NC(=O)[C@H](CCC(=O)O)NC(=O)[C@@H]2CCCN2C(=O)[C@H]2CCCN2C1=O
notes: also called compound 4
B6: target cyclic peptide 8 (peptide)
peptide: cyclo(PYYVRKKYY[dP])
SMILES: CC(C)[C@@H]1NC(=O)[C@H](Cc2ccc(O)cc2)NC(=O)[C@H](Cc2ccc(O)cc2)NC(=O)[C@@H]2CCCN2C(=O)[C@H]2CCCN2C(=O)[C@H](Cc2ccc(O)cc2)NC(=O)[C@H](Cc2ccc(O)cc2)NC(=O)[C@H](CCCCN)NC(=O)[C@H](CCCCN)NC(=O)[C@H](CCCNC(=N)N)NC1=O
notes: also called ^LP-Y-Y-V-R / ^DP-Y-Y-K-K

The first assay concerns the target T1, platelet-derived growth factor β-receptor (PDGFR-β).
T1 chain: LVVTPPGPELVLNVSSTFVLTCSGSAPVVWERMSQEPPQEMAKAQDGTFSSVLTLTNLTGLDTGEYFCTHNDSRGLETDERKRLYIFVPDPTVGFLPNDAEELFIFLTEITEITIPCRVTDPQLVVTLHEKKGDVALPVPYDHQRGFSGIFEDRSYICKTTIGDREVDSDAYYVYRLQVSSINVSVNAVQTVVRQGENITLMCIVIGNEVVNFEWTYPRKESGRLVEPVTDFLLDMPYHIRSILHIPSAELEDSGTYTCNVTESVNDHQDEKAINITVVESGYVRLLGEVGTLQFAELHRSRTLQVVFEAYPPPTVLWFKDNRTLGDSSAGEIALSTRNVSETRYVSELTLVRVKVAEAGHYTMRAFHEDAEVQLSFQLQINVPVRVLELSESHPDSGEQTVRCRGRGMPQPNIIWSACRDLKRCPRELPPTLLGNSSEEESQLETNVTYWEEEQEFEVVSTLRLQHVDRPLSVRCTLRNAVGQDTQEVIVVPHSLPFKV
The experiment in a line: solid-phase competition, displacement of 125I-PDGF-BB from plate-immobilised PDGFR-β.
Details: not given
(Displacement assays read how much labelled ligand stays bound in the presence of the test substance.)
In turn, B1 gave an IC50 of 2500 µM.

Take B2: the IC50 was 1500 µM.

For the molecule B3, the IC50 amounted to 2000 µM.

B4 came in with an IC50 of 1500 µM.

B5 had an IC50 of less than 2500 µM.

With B6, the IC50 turned out to be 800 µM.

In a further assay the target is platelet-derived growth factor β-receptor (PDGFR-β) (Homo sapiens, UniProt P09619). The experiment in a line: Solid-phase assay: displacement of 125I-PDGF-BB from immobilized PDGFR-β. It is filed as binding.
Chain of platelet-derived growth factor β-receptor (PDGFR-β) (Homo sapiens, UniProt P09619) (P09619 33-1106, species assumed): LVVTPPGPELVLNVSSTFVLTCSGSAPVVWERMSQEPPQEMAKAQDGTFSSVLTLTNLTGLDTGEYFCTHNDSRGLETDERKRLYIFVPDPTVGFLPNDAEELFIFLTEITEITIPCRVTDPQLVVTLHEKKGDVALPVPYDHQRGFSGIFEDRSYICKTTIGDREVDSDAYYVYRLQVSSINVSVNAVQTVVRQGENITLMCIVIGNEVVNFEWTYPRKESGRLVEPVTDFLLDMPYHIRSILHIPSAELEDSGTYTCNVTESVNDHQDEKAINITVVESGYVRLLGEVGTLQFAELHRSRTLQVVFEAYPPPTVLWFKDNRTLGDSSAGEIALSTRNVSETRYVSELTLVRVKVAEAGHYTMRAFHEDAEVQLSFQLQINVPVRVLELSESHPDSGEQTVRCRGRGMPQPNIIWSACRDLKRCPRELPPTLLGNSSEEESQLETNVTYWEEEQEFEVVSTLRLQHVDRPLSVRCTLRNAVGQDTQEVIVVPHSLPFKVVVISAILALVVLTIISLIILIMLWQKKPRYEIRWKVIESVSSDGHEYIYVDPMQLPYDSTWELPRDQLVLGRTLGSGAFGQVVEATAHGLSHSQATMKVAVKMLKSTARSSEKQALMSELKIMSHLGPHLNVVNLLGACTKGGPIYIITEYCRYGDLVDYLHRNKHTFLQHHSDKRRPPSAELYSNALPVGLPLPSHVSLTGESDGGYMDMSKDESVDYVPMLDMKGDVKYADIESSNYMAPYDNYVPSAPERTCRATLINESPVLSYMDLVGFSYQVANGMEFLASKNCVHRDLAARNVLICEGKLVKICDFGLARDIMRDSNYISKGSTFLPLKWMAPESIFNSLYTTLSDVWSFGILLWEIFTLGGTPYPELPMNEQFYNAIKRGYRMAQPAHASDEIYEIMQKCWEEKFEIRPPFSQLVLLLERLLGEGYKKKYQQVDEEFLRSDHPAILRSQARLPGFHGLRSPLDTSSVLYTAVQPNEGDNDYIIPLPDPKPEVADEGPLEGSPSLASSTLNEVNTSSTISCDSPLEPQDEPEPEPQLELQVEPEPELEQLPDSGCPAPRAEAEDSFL
Details: not given
The method, then: Direct immobilization of platelet-derived growth factor […] is performed by overnight incubation in immunosorbent 96-well plates (Nunc) at 4° C. using 100 ng of purified protein in 100 μl of 15 mM Na2CO3, 35 mM NaHCO3, pH 9.6. The plates are washed once with tris-buffered saline (TBS, 20 mM Tris-HCl, 150 mM NaCl, pH 7.4), and nonspecific adsorption is blocked by at least 1 h of incubation with TBS plus 1% bovine serum albumin (BSA). Following washing with TBS plus 0.1% Tween, 3000 cpm of ^125I-PDGF-BB and increasing amounts of unlabeled PDGF-BB or the peptide derivative of formula I are added to duplicate wells and incubated for 3 h at room temperature in 0.1% Tween, 1 mM CaCl2, 1 mM MgCl2 and 1% BSA. The plates are washed three times with TBS plus 0.1% Tween, and bound ligand is removed with 0.1 M citric acid, pH 2.5, prior to counting in a γ-counter.
Direct immobilization of platelet-derived growth factor β-receptor (PDGFR-β) was performed by overnight incubation in immunosorbent 96-well plates (Nunc) at 4° C. using 100 ng of purified protein in 100 μl of 15 mM Na2CO3, 35 mM NaHCO3, pH 9.6. Plates were washed once with Tris-buffered saline (TBS, 20 mM Tris-HCL, 150 mM Na Cl, pH 7.4), and nonspecific adsorption was blocked by at least 1 h of incubation with TBS plus 1% bovine serum albumin (BSA). Following washing with TBS plus 0.1% Tween, 3000 cpm of ^125I-PDGF-BB and increasing amounts of unlabeled PDGF-BB or the peptides to be tested were added to duplicate wells and incubated for 3 h at room temperature in TBS plus 0.1% Tween, 1 mM CaCl2, 1 mM MgCl2, and 1% BSA. The plates were washed three times with TBS plus 0.1% Tween, and the bound ligand was removed with 0.1 M citric acid, pH 2.5, before counting in a γ-counter.
The cyclic peptides were analyzed and purified by preparative HPLC (dual-pump Pharmacia system with Waters RCM-μBondapak®-C18-cartridges, 10 μm 300 A 25×100 mm for prep. and 8×100 mm for anal., with flow rates of 8 and 2 ml/mim, respectively; UV detection at 226 and 278 nm), then MS, NMR(600 MHz,1 H) and CD. Solid-phase assays were run, as described in 2.4.
In turn, `CC(C)[C@@H]1NC(=O)[C@H](Cc2c[nH]c3ccccc23)NC(=O)[C@H](Cc2ccc(O)cc2)NC(=O)[C@@H]2CCCN2C(=O)[C@H]2CCCN2C(=O)[C@H](Cc2ccc(O)cc2)NC(=O)[C@H](Cc2c[nH]c3ccccc23)NC(=O)[C@H](CCCCN)NC(=O)[C@H](CCCCN)NC(=O)[C@H](CCCNC(=N)N)NC1=O` [Example 9] (cyclo(YWVRKKWY[dP]P)) returned an IC50 of 500 µM.

Staying with this assay, now noted: competition with 125I-PDGF-BB, 3 h at room temperature, immobilized purified PDGFR-β; read-out: Assay I50.
With `CC(C)[C@@H]1NC(=O)[C@H](C)NC(=O)[C@H](Cc2c[nH]c3ccccc23)NC(=O)[C@@H]2CCCN2C(=O)[C@H]2CCCN2C(=O)[C@H](Cc2c[nH]c3ccccc23)NC(=O)[C@H](C)NC(=O)[C@H](CCCCN)NC(=O)[C@H](CCCCN)NC(=O)[C@H](CCCNC(=N)N)NC1=O` [Example 16] (cyclo(PWAVRKKAW[dP])), the IC50 was determined as 800 µM.

`CC(C)[C@@H]1NC(=O)[C@H](Cc2c[nH]c3ccccc23)NC(=O)[C@H](C)NC(=O)[C@@H]2CCCN2C(=O)[C@H]2CCCN2C(=O)[C@H](C)NC(=O)[C@H](Cc2c[nH]c3ccccc23)NC(=O)[C@H](CCCCN)NC(=O)[C@H](CCCCN)NC(=O)[C@H](CCCNC(=N)N)NC1=O` [Example 21] (cyclo(PAWVRKKWA[dP])): the IC50 worked out at 2000 µM.

Turning to `CC[C@H](C)[C@@H]1NC(=O)[C@H](CCC(=O)O)NC(=O)[C@@H]2CCCN2C(=O)[C@H]2CCCN2C(=O)[C@H]([C@@H](C)CC)NC(=O)[C@@H]2CCCN2C(=O)[C@H](CCCCN)NC(=O)[C@H](CCCCN)NC(=O)[C@H](CCCNC(=N)N)NC(=O)[C@H](C(C)C)NC1=O` [Example 1] (cyclo(PEIVRKKPI[dP])), the IC50 was 2200 µM.

Consider `CC(C)[C@@H]1NC(=O)[C@H](C)NC(=O)[C@H](Cc2ccc(O)cc2)NC(=O)[C@@H]2CCCN2C(=O)[C@H]2CCCN2C(=O)[C@H](Cc2ccc(O)cc2)NC(=O)[C@H](C)NC(=O)[C@H](CCCCN)NC(=O)[C@H](CCCCN)NC(=O)[C@H](CCCNC(=N)N)NC1=O` [Example 10] (cyclo(PYAVRKKAY[dP])), for which the IC50 amounted to 2000 µM.

Turning to `CC(C)[C@@H]1NC(=O)[C@H](CO)NC(=O)[C@H](Cc2c[nH]c3ccccc23)NC(=O)[C@@H]2CCCN2C(=O)[C@H]2CCCN2C(=O)[C@H](Cc2c[nH]c3ccccc23)NC(=O)[C@H](CO)NC(=O)[C@H](CCCCN)NC(=O)[C@H](CCCCN)NC(=O)[C@H](CCCNC(=N)N)NC1=O` [Example 17] (cyclo(PWSVRKKSW[dP])), the IC50 came out at 800 µM.

As to `CC(C)[C@@H]1NC(=O)[C@H](CO)NC(=O)[C@H](Cc2ccc(O)cc2)NC(=O)[C@@H]2CCCN2C(=O)[C@H]2CCCN2C(=O)[C@H](Cc2ccc(O)cc2)NC(=O)[C@H](CO)NC(=O)[C@H](CCCCN)NC(=O)[C@H](CCCCN)NC(=O)[C@H](CCCNC(=N)N)NC1=O` [Example 11] (cyclo(PYSVRKKSY[dP])), the IC50 was found to be 2000 µM.

With `CC(C)[C@@H]1NC(=O)[C@H](CCCCN)NC(=O)[C@H](Cc2ccc(O)cc2)NC(=O)[C@@H]2CCCN2C(=O)[C@H]2CCCN2C(=O)[C@H](Cc2ccc(O)cc2)NC(=O)[C@H](CCCCN)NC(=O)[C@H](CCCCN)NC(=O)[C@H](CCCCN)NC(=O)[C@H](CCCNC(=N)N)NC1=O` [Example 12] (cyclo(PYKVRKKKY[dP])), the IC50 stood at 1500 µM.

As for `CC(C)[C@@H]1NC(=O)[C@H](Cc2ccc(O)cc2)NC(=O)[C@H](Cc2ccc(O)cc2)NC(=O)[C@@H]2CCCN2C(=O)[C@H]2CCCN2C(=O)[C@H](Cc2ccc(O)cc2)NC(=O)[C@H](Cc2ccc(O)cc2)NC(=O)[C@H](CCCCN)NC(=O)[C@H](CCCCN)NC(=O)[C@H](CCCNC(=N)N)NC1=O` [Example 8] (cyclo(PYYVRKKYY[dP])), the IC50 stood at 800 µM.

As to `CC(C)[C@@H]1NC(=O)[C@H](CCCCN)NC(=O)[C@H](Cc2c[nH]c3ccccc23)NC(=O)[C@@H]2CCCN2C(=O)[C@H]2CCCN2C(=O)[C@H](Cc2c[nH]c3ccccc23)NC(=O)[C@H](CCCCN)NC(=O)[C@H](CCCCN)NC(=O)[C@H](CCCCN)NC(=O)[C@H](CCCNC(=N)N)NC1=O` [Example 18] (cyclo(PWKVRKKKW[dP])), the IC50 was 500 µM.

Take `CC[C@H](C)[C@@H]1NC(=O)[C@H](Cc2ccc(O)cc2)NC(=O)[C@H](CCCCN)NC(=O)[C@H](CCCCN)NC(=O)[C@H](CCCNC(=N)N)NC(=O)[C@H](C(C)C)NC(=O)[C@H](Cc2ccc(O)cc2)NC(=O)[C@H](CCC(=O)O)NC(=O)[C@@H]2CCCN2C(=O)[C@H]2CCCN2C1=O` [Example 2] (cyclo(PEYVRKKYI[dP])): the IC50 worked out at 2000 µM.

`CC(C)[C@@H]1NC(=O)[C@H](Cc2ccc(O)cc2)NC(=O)[C@H](C)NC(=O)[C@@H]2CCCN2C(=O)[C@H]2CCCN2C(=O)[C@H](C)NC(=O)[C@H](Cc2ccc(O)cc2)NC(=O)[C@H](CCCCN)NC(=O)[C@H](CCCCN)NC(=O)[C@H](CCCNC(=N)N)NC1=O` [Example 20] (cyclo(PAYVRKKYA[dP])): the IC50 came to 2000 µM.

The values are drawn from US6878804B1, “Synthesis of template-fixed β-hairpin loop mimetics” (University of Zurich, priority 1999, dated 2005).
